Legend:
[1] = tested on: smallflower umbrella sedge; test: Test C flooded paddy test; format: in vivo, Cyperus difformis; details: for Plant response rating, Sedge, Umbrella: 500 g ai/ha, visual rating after 12 to 14 days
common ragweed = test: Test C pre-/postemergence herbicide test; format: in vivo, Ambrosia elatior; parameters: key to Plant response rating, Ragweed: 0 = no effect, 100 = complete control; details: for Ragweed plant response rating: 500 g ai/ha
Outline: (§1)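 Emerged plants at the 1- to 4-leaf stage (2–18 cm), or freshly planted seeds, received test chemicals in a non-phytotoxic solvent mixture with surfactant. Response was visually scored against controls after 12 to 14 days in the greenhouse, on a 0 (no effect) to 100 (complete control) scale.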

lambsquarters = test: Test C pre-/postemergence herbicide test; format: in vivo, Chenopodium album; details: for Lambsquarters plant response rating: 500 g ai/ha
Outline: as §1

ducksalad = test: Test C flooded paddy test; format: in vivo, Heteranthera limosa; details: for Plant response rating, Ducksalad: 500 g ai/ha, visual rating after 12 to 14 days
large crabgrass = test: Test C pre-/postemergence herbicide test; format: in vivo, Digitaria sanguinalis; details: for Crabgrass, Large plant response rating: 500 g ai/ha
Outline: as §1

barnyardgrass [2] = test: Test C flooded paddy test; format: in vivo, Echinochloa crus-galli; details: for Plant response rating, Barnyardgrass: 500 g ai/ha, visual rating after 12 to 14 days
Outline: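 After a postemergence application at 1 to 4 leaves (plants 2–18 cm high), or at 2 leaves for barnyardgrass in flooded paddy, plants stayed in the greenhouse for 12 to 14 days. Damage was then judged visually relative to control plants, with 100 indicating complete control.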

cocklebur = test: Test C pre-/postemergence herbicide test; format: in vivo, Xanthium strumarium; details: for Cocklebur plant response rating: 500 g ai/ha
Outline: as §1

velvetleaf = test: Test C pre-/postemergence herbicide test; format: in vivo, Abutilon theophrasti; details: for Velvetleaf plant response rating: 500 g ai/ha
Outline: as §1

corn = test: Test C pre-/postemergence herbicide test; format: in vivo, Zea mays; details: for Corn plant response rating: 500 g ai/ha
Outline: as §1

[3] = tested on: common (oilseed) sunflower; test: Test C pre-/postemergence herbicide test; format: in vivo, Helianthus annuus; details: for Plant response rating (0 = no effect, 100 = complete control), Sunflower: 62 g ai/ha
Outline: as §1

pigweed = test: Test C pre-/postemergence herbicide test; format: in vivo, Amaranthus retroflexus; details: for Pigweed plant response rating: 500 g ai/ha
Outline: as §1

barnyardgrass [4] = test: Test A pre-/postemergence herbicide test; format: in vivo, Echinochloa crus-galli
Outline: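 Both application timings were run together: directed soil spray over freshly planted seeds in sandy loam, and runoff spray onto 2–10 cm seedlings. Evaluation after ~10 days in greenhouse used a 0–100 visual scale versus untreated controls.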

eastern black nightshade = test: Test C pre-/postemergence herbicide test; format: in vivo, Solanum ptycanthum; details: for Plant response rating (0 = no effect, 100 = complete control), Nightshade: 62 g ai/ha; for Plant response rating (0 = no effect, 100 = complete control), Nightshade / Plant response rating, Nightshade: preemergence; for Plant response rating, Nightshade: 125 g ai/ha, scale 0 (no effect) to 100 (complete control), visual, 12 to 14 days
Outline: as §1

[5] = 62 g ai/ha, scale 0 to 100 (0 no effect, 100 complete control)
[6] = 125 g ai/ha, scale of 0 to 100, 0 is no effect, 100 is complete control
[7] = 250 g ai/ha, scale of 0 to 100, 0 is no effect, 100 is complete control
[8] = scale 0 to 100 (0 no effect, 100 complete control)
[9] = 125 g ai/ha, scale 0 (no effect) to 100 (complete control), visual, 12 to 14 days, preemergence
[10] = Postemergence, 250 g ai/ha, scale 0 to 100, 0 no effect, 100 complete control
[11] = Preemergence, scale 0 to 100, 0 no effect, 100 complete control
[12] = postemergence, 125 g ai/ha, scale 0 to 100
[13] = postemergence, 62 g ai/ha, scale 0 to 100
[14] = 250 g ai/ha, scale 0 to 100 (0 no effect, 100 complete control), visual, 12 to 14 days, preemergence
[15] = Preemergence, 500 g ai/ha, scale 0 to 100, 0 no effect, 100 complete control
[16] = 125 g ai/ha, scale 0 to 100 (0 no effect, 100 complete control)

CC(=NO)c1cccc(NC(=O)c2cc(C(C)(C)C)nn2CCF)c1 [Compound 115]
65: Barnyardgrass plant response rating (barnyardgrass [2]; [7])
75: Ducksalad plant response rating (ducksalad; [6]) | Plant response rating, Barnyardgrass (barnyardgrass [2]; [8])
10: Plant response rating (0 = no effect, 100 = complete control), Corn (corn; 62 g ai/ha, preemergence) | Plant response rating, Corn (corn; [9]) | Sunflower plant response rating [3, 15]
45: Barnyardgrass plant response rating (barnyardgrass [2]; [6])
30: Ducksalad plant response rating (ducksalad; [5]) | Barnyardgrass plant response rating (barnyardgrass [2]; [5]) | Corn plant response rating (corn; [11])
85: Sedge, Umbrella plant response rating [1, 6] | Ducksalad plant response rating (ducksalad; [7]) | Barnyardgrass plant response rating (barnyardgrass [4]; Preemergence, 2000 g ai/ha, visual rating, 0 to 100 scale (0 no effect, 100 complete control))
70: Plant response rating (0 = no effect, 100 = complete control), Ragweed (common ragweed; 62 g ai/ha, preemergence) | Plant response rating, Ragweed (common ragweed; [10]) | Plant response rating, Ragweed (common ragweed; [12]) | Plant response rating, Ragweed (common ragweed; [13]) | Plant response rating, Crabgrass, Large (large crabgrass; [10]) | Plant response rating, Crabgrass, Large (large crabgrass; [12]) | Barnyardgrass plant response rating (barnyardgrass [4]; Postemergence, 500 g ai/ha, 0 to 100 scale, 0 no effect, 100 complete control) | Barnyardgrass plant response rating (barnyardgrass [4]; Preemergence, 500 g ai/ha, visual rating, 0 to 100 scale (0 no effect, 100 complete control))
95: Plant response rating, Sedge, Umbrella [1, 8]
80: Sedge, Umbrella plant response rating [1, 5] | Plant response rating, Ragweed (common ragweed; [9]) | Plant response rating, Barnyardgrass (barnyardgrass [4]; Postemergence, 2000 g ai/ha, 0 to 100 scale, 0 no effect, 100 complete control)
40: Plant response rating, Cocklebur (cocklebur; [9]) | Corn plant response rating (corn; Postemergence, scale 0 to 100) | Plant response rating, Corn (corn; [12]) | Plant response rating, Corn (corn; [13])
100: Ragweed plant response rating (common ragweed; [11]) | Plant response rating (0 = no effect, 100 = complete control), Lambsquarters (lambsquarters; 62 g ai/ha, preemergence) | Plant response rating, Lambsquarters (lambsquarters; [9]) | Lambsquarters plant response rating (lambsquarters; Postemergence, scale 0 to 100) | Plant response rating, Lambsquarters (lambsquarters; [10]) | Lambsquarters plant response rating (lambsquarters; [11]) | Plant response rating, Lambsquarters (lambsquarters; [12]) | Plant response rating, Lambsquarters (lambsquarters; [13]) | Plant response rating (0 = no effect, 100 = complete control), Crabgrass, Large (large crabgrass; 62 g ai/ha, preemergence) | Plant response rating, Crabgrass, Large (large crabgrass; [9]) | Plant response rating, Crabgrass, Large (large crabgrass; [14]) | Crabgrass, Large plant response rating (large crabgrass; [11]) | Cocklebur plant response rating (cocklebur; Postemergence, scale 0 to 100) | Plant response rating, Cocklebur (cocklebur; [10]) | Cocklebur plant response rating (cocklebur; [11]) | Plant response rating, Velvetleaf (velvetleaf; [9]) | Velvetleaf plant response rating (velvetleaf; [11]) | Plant response rating (0 = no effect, 100 = complete control), Pigweed (pigweed; 62 g ai/ha, preemergence) | Plant response rating, Pigweed (pigweed; [9]) | Pigweed plant response rating (pigweed; Postemergence, scale 0 to 100) | Plant response rating, Pigweed (pigweed; [10]) | Pigweed plant response rating (pigweed; [11]) | Plant response rating, Pigweed (pigweed; [12]) | Plant response rating, Pigweed (pigweed; [13]) | Plant response rating (0 = no effect, 100 = complete control), Nightshade (eastern black nightshade) | Plant response rating, Nightshade (eastern black nightshade) | Nightshade plant response rating (eastern black nightshade; [15])
0: Plant response rating (0 = no effect, 100 = complete control), Sunflower ([3]; preemergence)
90: Sedge, Umbrella plant response rating [1, 7] | Ragweed plant response rating (common ragweed; Postemergence, scale 0 to 100) | Plant response rating, Ducksalad (ducksalad; [8]) | Crabgrass, Large plant response rating (large crabgrass; Postemergence, scale 0 to 100) | Plant response rating, Cocklebur (cocklebur; [12]) | Plant response rating, Cocklebur (cocklebur; [13]) | Velvetleaf plant response rating (velvetleaf; Postemergence, scale 0 to 100) | Plant response rating, Velvetleaf (velvetleaf; [10]) | Plant response rating, Velvetleaf (velvetleaf; [12])
20: Plant response rating (0 = no effect, 100 = complete control), Cocklebur (cocklebur; 62 g ai/ha, preemergence) | Plant response rating, Corn (corn; [14])
50: Plant response rating, Cocklebur (cocklebur; [14])
60: Plant response rating, Crabgrass, Large (large crabgrass; [13]) | Plant response rating, Velvetleaf (velvetleaf; [13])

CCn1nc(C(C)(C)C)cc1C(=O)Nc1cccc(SC)c1 [Compound 131]
25: Plant response rating, Cocklebur (cocklebur; [14]) | Barnyardgrass plant response rating (barnyardgrass [4]; Postemergence, 250 g ai/ha, 0 to 100 scale, 0 no effect, 100 complete control)
0: Ducksalad plant response rating (ducksalad; [5]) | Barnyardgrass plant response rating (barnyardgrass [2]; [5]) | Barnyardgrass plant response rating (barnyardgrass [2]; [6]) | Plant response rating (0 = no effect, 100 = complete control), Cocklebur (cocklebur; 62 g ai/ha, preemergence) | Plant response rating (0 = no effect, 100 = complete control), Corn (corn; 62 g ai/ha, preemergence) | Plant response rating, Corn (corn; [9]) | Plant response rating, Corn (corn; [14]) | Plant response rating (0 = no effect, 100 = complete control), Sunflower ([3]; preemergence) | Plant response rating, Sunflower [3, 9]
70: Sedge, Umbrella plant response rating [1, 7]
15: Plant response rating, Velvetleaf (velvetleaf; [9])
55: Sedge, Umbrella plant response rating [1, 5] | Plant response rating (0 = no effect, 100 = complete control), Nightshade (eastern black nightshade)
10: Barnyardgrass plant response rating (barnyardgrass [2]; [7])
90: Plant response rating, Crabgrass, Large (large crabgrass; [9]) | Plant response rating, Crabgrass, Large (large crabgrass; [14])
100: Plant response rating, Lambsquarters (lambsquarters; [9]) | Plant response rating, Pigweed (pigweed; [9])
80: Plant response rating, Sedge, Umbrella [1, 8] | Plant response rating, Ducksalad (ducksalad; [8])
65: Sedge, Umbrella plant response rating [1, 16]
20: Ducksalad plant response rating (ducksalad; [16]) | Plant response rating, Cocklebur (cocklebur; [9])
45: Ducksalad plant response rating (ducksalad; [7]) | Plant response rating (0 = no effect, 100 = complete control), Crabgrass, Large (large crabgrass; 62 g ai/ha, preemergence) | Barnyardgrass plant response rating (barnyardgrass [4]; preemergence, 250 g ai/ha, visual injury, 0 to 100 scale (0 no effect, 100 complete control))
95: Plant response rating (0 = no effect, 100 = complete control), Lambsquarters (lambsquarters; 62 g ai/ha, preemergence) | Plant response rating (0 = no effect, 100 = complete control), Pigweed (pigweed; 62 g ai/ha, preemergence) | Plant response rating, Nightshade (eastern black nightshade)
60: Plant response rating, Barnyardgrass (barnyardgrass [4]; Postemergence, 1000 g ai/ha, 0 to 100 scale, 0 no effect, 100 complete control)
40: Plant response rating (0 = no effect, 100 = complete control), Ragweed (common ragweed; 62 g ai/ha, preemergence)
30: Plant response rating, Barnyardgrass (barnyardgrass [2]; [8])
50: Plant response rating, Ragweed (common ragweed; [9]) | Barnyardgrass plant response rating (barnyardgrass [4]; Preemergence, 1000 g ai/ha, visual rating, 0 to 100 scale (0 no effect, 100 complete control))
